The target in this experiment is ALK2 (Homo sapiens (Human), UniProt Q04771). The experiment can be described thus: ALK2 inhibition, LanthaScreen Eu Kinase Binding Assay (ThermoFisher Scientific / Life Technologies). The conditions noted are these: read-out: Measured Ki (IC50) Value for Compounds: IC50. How it is done: Biochemical assays to measure the inhibitory effects of the compounds were performed by ThermoFisher Scientific (Life Technologies). ALK2 inhibition was tested using LanthaScreen™ Eu Kinase Binding Assay screening protocol.

Where only a bound is given, the exact number is not on record here.

One may read the IC50 as the concentration at which inhibition is half-maximal.

ALK2, sequence (Q04771 21-509): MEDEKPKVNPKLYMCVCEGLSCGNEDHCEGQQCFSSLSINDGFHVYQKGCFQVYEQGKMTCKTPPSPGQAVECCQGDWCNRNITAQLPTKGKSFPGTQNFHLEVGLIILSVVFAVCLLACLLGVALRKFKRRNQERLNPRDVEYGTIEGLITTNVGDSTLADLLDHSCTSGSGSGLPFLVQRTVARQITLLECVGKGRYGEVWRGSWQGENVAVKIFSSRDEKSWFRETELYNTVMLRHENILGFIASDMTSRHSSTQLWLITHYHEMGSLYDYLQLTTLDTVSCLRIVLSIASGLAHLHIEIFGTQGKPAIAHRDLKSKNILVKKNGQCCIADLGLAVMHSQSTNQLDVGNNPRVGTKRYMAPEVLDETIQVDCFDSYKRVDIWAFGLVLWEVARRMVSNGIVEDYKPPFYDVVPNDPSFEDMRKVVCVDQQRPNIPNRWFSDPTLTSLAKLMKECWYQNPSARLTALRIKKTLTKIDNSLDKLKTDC

For the molecule `OC[C@@H]1CCCN1c1nc(Nc2cn(-c3ccc(F)c(F)c3)cn2)c2cccn2n1` [Compound 128c, (S)-(1-(4-((1-(3,4-difluorophenyl)-1H-imidazol-4-yl)amino)pyrrolo[2,1-f][1,2,4]triazin-2-yl)pyrrolidin-2-yl)methanol], the IC50 was under 100 nM.

Regarding `c1ccc(C2CCCN2c2nc(Nc3cn(-c4cc[nH]n4)cn3)c3cccn3n2)nc1` (centres unmarked) [Compound 74a, N-(1-(1H-pyrazol-3-yl)-1H-imidazol-4-yl)-2-(2-(pyridin-2-yl)pyrrolidin-1-yl)pyrrolo[2,1-f][1,2,4]triazin-4-amine], the IC50 was over 1000 nM.

Consider `COc1cc(-n2cnc(Nc3ccc4ccc(Nc5cn(-c6cc(OC)c(OC)c(OC)c6)cn5)cc4c3)c2)cc(OC)c1OC` [Compound 208b, N^2,N^7-bis(1-(3,4,5-trimethoxyphenyl)-1H-imidazol-4-yl)naphthalene-2,7-diamine], for which the IC50 was under 100 nM.

Consider `COc1cc(-n2cnc(Nc3ncc4c(n3)CCN(Cc3ccccc3)C4)c2)cc(OC)c1OC` [Compound 201b, 6-benzyl-N-(1-(3,4,5-trimethoxyphenyl)-1H-imidazol-4-yl)-5,6,7,8-tetrahydropyrido[4,3-d]pyrimidin-2-amine], for which the IC50 was under 100 nM.

Regarding `COc1cc(-n2cnc(Nc3nc(N4CCC[C@H]4CO)c4sccc4n3)c2)cc(OC)c1OC` [Compound 138b, (S)-(1-(2-((1-(3,4,5-trimethoxyphenyl)-1H-imidazol-4-yl)amino)thieno[3,2-d]pyrimidin-4-yl)pyrrolidin-2-yl)methanol], the IC50 is under 100 nM.

On to `COc1cc(-n2cnc(Nc3nc(N4CCC[C@H]4CO)nn4c(CN5CCNCC5)ccc34)c2)cc(OC)c1OC` [Compound 122a, (S)-(1-(7-(piperazin-1-ylmethyl)-4-((1-(3,4,5-trimethoxyphenyl)-1H-imidazol-4-yl)amino)pyrrolo[2,1-f][1,2,4]triazin-2-yl)pyrrolidin-2-yl)methanol], for which the IC50 was under 100 nM.

In the case of `COc1cc(-n2cnc(Nc3nc(N4CCC[C@@H]4CO)nc4c3CCC4)c2)cc(OC)c1OC` [Compound 290a, (R)-(1-(4-((1-(3,4,5-trimethoxyphenyl)-1H-imidazol-4-yl)amino)-6,7-dihydro-5H-cyclopenta[d]pyrimidin-2-yl)pyrrolidin-2-yl)methanol], the IC50 was under 100 nM.

For `COc1cc(-n2cnc(Nc3nc(N4CC[C@@H](CO)C4)c4cccn4n3)c2)cc(OC)c1OC` [Compound 283b, (R)-(1-(2-(1-(3,4,5-trimethoxyphenyl)-1H-imidazol-4-ylamino)pyrrolo[1,2-f][1,2,4]triazin-4-yl)pyrrolidin-3-yl)methanol], the IC50 was under 100 nM.

Take `c1ccc(-n2cnc(Nc3nc(N4CCCC4c4ccccn4)nc4ccoc34)c2)cc1` (centres unmarked) [Compound 33a, N-(1-phenyl-1H-imidazol-4-yl)-2-(2-(pyridin-2-yl)pyrrolidin-1-yl)furo[3,2-d]pyrimidin-4-amine]: the IC50 was under 100 nM.

Turning to `OC[C@@H]1CCCN1c1nc(Nc2cn(-c3ccc(Cl)cc3)cn2)c2cccn2n1` [Compound 49c, (S)-(1-(4-((1-(4-chlorophenyl)-1H-imidazol-4-yl)amino)pyrrolo[2,1-f][1,2,4]triazin-2-yl)pyrrolidin-2-yl)methanol], the half-maximal inhibitory concentration (IC50) was under 100 nM.

In the case of `COc1cc(-n2cnc(Nc3nc(N4CCC[C@H]4CO)c4ccc(-c5cccc(NS(C)(=O)=O)c5)cc4n3)c2)cc(OC)c1OC` [Compound 363b, (S)—N-(3-(4-(2-(hydroxymethyl)pyrrolidin-1-yl)-2-((1-(3,4,5-trimethoxyphenyl)-1H-imidazol-4-yl)amino)quinazolin-7-yl)phenyl)methanesulfonamide], the concentration for half-maximal inhibition (IC50) was under 100 nM.

Consider `COc1cc(-n2cnc(Nc3nc4c(c(N5[C@H](CO)C[C@H]6C[C@H]65)n3)CCC4)c2)cc(OC)c1OC` [Compound 394b, ((1R,3S,5R)-2-(2-((1-(3,4,5-trimethoxyphenyl)-1H-imidazol-4-yl)amino)-6,7-dihydro-5H-cyclopenta[d]pyrimidin-4-yl)-2-azabicyclo[3.1.0]hexan-3-yl)methanol], for which the concentration for half-maximal inhibition (IC50) is under 100 nM.

Regarding `COc1cc(-n2cnc(Nc3nc(N4CCC[C@H]4CO)c4c(C)nn(C5CCC5)c4n3)c2)cc(OC)c1OC` [Compound 442c, (S)-(1-(1-cyclobutyl-3-methyl-6-((1-(3,4,5-trimethoxyphenyl)-1H-imidazol-4-yl)amino)-1H-pyrazolo[3,4-d]pyrimidin-4-yl)pyrrolidin-2-yl)methanol], the IC50 is under 100 nM.

Take `COc1cc(-n2cnc(Nc3nc(N4CCC[C@H]4CO)c4ccc(C(F)(F)F)cc4n3)c2)cc(OC)c1OC` [Compound 286b, (S)-(1-(7-(trifluoromethyl)-2-((1-(3,4,5-trimethoxyphenyl)-1H-imidazol-4-yl)amino)quinazolin-4-yl)pyrrolidin-2-yl)methanol]: the IC50 is under 100 nM.

Regarding `COCCN1CCN(Cc2ccc3c(Nc4cn(-c5cc(OC)c(OC)c(OC)c5)cn4)nc(N4CCC[C@H]4CO)nn23)CC1` [Compound 114b, (S)-(1-(7-((4-(2-methoxyethyl)piperazin-1-yl)methyl)-4-((1-(3,4,5-trimethoxyphenyl)-1H-imidazol-4-yl)amino)pyrrolo[2,1-f][1,2,4]triazin-2-yl)pyrrolidin-2-yl)methanol], the IC50 is under 100 nM.

Consider `COc1cc(-n2cnc(Nc3nc4c(c(N5CCC[C@H]5CO)n3)CN(C(=O)[C@@H]3CCC(=O)N3)CC4)c2)cc(OC)c1OC` [Compound 240a, (S)-5-(4-((S)-2-(hydroxymethyl)pyrrolidin-1-yl)-2-((1-(3,4,5-trimethoxyphenyl)-1H-imidazol-4-yl)amino)-5,6,7,8-tetrahydropyrido[4,3-d]pyrimidine-6-carbonyl)pyrrolidin-2-one], for which the IC50 was under 100 nM.

As for `COc1cc(-n2cnc(Nc3nc(N4CCCC4)c4ncsc4n3)c2)cc(OC)c1OC` [Compound 233b, 7-(pyrrolidin-1-yl)-N-(1-(3,4,5-trimethoxyphenyl)-1H-imidazol-4-yl)thiazolo[5,4-d]pyrimidin-5-amine], the IC50 lay in the range of 100 to 1000 nM.

Regarding `COc1cc(-n2cnc(Nc3nc(N4CCC[C@H]4CO)c4c(C)nn(C5CC(F)(F)C5)c4n3)c2)cc(OC)c1OC` [Compound 459c, (S)-(1-(1-(3,3-difluorocyclobutyl)-3-methyl-6-((1-(3,4,5-trimethoxyphenyl)-1H-imidazol-4-yl)amino)-1H-pyrazolo[3,4-d]pyrimidin-4-yl)pyrrolidin-2-yl)methanol], the IC50 was under 100 nM.

With `COc1cc(-n2cnc(Nc3nc(N4CCC[C@H]4CO)nc4[nH]nc(C)c34)c2)cc(OC)c1OC` [Compound 400d, (S)-(1-(3-methyl-4-((1-(3,4,5-trimethoxyphenyl)-1H-imidazol-4-yl)amino)-1H-pyrazolo[3,4-d]pyrimidin-6-yl)pyrrolidin-2-yl)methanol], the IC50 is 100 to 1000 nM.

On to `CC(=O)c1cccc(-n2cnc(Nc3nc(N4CCC[C@H]4CO)nn4cccc34)c2)c1` [Compound 47c, (S)-1-(3-(4-((2-(2-(hydroxymethyl)pyrrolidin-1-yl)pyrrolo[2,1-f][1,2,4]triazin-4-yl)amino)-1H-imidazol-1-yl)phenyl)ethanone], for which the IC50 was under 100 nM.

As for `COc1cc(-n2cnc(Nc3nc4c(c(N5CCC[C@H]5C(N)=O)n3)CNCC4)c2)cc(OC)c1OC` [Compound 193c, (S)-1-(2-((1-(3,4,5-trimethoxyphenyl)-1H-imidazol-4-yl)amino)-5,6,7,8-tetrahydropyrido[4,3-d]pyrimidin-4-yl)pyrrolidine-2-carboxamide], the IC50 is under 100 nM.

With `COc1cc(-n2cnc(Nc3nc(N4CCCC4)c4sccc4n3)c2)cc(OC)c1OC` [Compound 207b, 4-(pyrrolidin-1-yl)-N-(1-(3,4,5-trimethoxyphenyl)-1H-imidazol-4-yl)thieno[3,2-d]pyrimidin-2-amine], the IC50 is under 100 nM.

With `COc1cc(-n2cnc(Nc3nc(N4CCC[C@H]4CO)nc4ccccc34)c2)cc(OC)c1OC` [Compound 86b, (S)-(1-(4-((1-(3,4,5-trimethoxyphenyl)-1H-imidazol-4-yl)amino)quinazolin-2-yl)pyrrolidin-2-yl)methanol], the IC50 was under 100 nM.

With `OC[C@@H]1CCCN1c1nc(Nc2cn(-c3ccc(OC(F)(F)F)cc3)cn2)c2cccn2n1` [Compound 414d, (S)-(1-(4-((1-(4-(trifluoromethoxy)phenyl)-1H-imidazol-4-yl)amino)pyrrolo[2,1-f][1,2,4]triazin-2-yl)pyrrolidin-2-yl)methanol], the IC50 lay within 100 to 1000 nM.

In the case of `COc1cc(-n2cnc(Nc3cc(C(=O)N4CCC[C@H]4C(N)=O)cc4ccoc34)c2)cc(OC)c1OC` [Compound 411d, (S)-1-(7-((1-(3,4,5-trimethoxyphenyl)-1H-imidazol-4-yl)amino)benzofuran-5-carbonyl)pyrrolidine-2-carboxamide], the IC50 is 100 to 1000 nM.

As for `COc1cc(-n2cnc(Nc3nc(-c4cccc(C=O)c4)nc4sc(CO)cc34)c2)cc(OC)c1OC` [Compound 109a, 3-(6-(hydroxymethyl)-4-((1-(3,4,5-trimethoxyphenyl)-1H-imidazol-4-yl)amino)thieno[2,3-d]pyrimidin-2-yl)benzaldehyde], the IC50 was under 100 nM.

As for `COc1cc(-n2cnc(Nc3nc(N4CCC[C@@H]4CO)nc4ccccc34)c2)cc(OC)c1OC` [Compound 304a, (R)-(1-(4-((1-(3,4,5-trimethoxyphenyl)-1H-imidazol-4-yl)amino)quinazolin-2-yl)pyrrolidin-2-yl)methanol], the IC50 is under 100 nM.

Regarding `COc1cc2nc(Nc3cn(-c4cc(OC)c(OC)c(OC)c4)cn3)nc(N3CCC[C@H]3CO)c2cc1OC` [Compound 221c, (S)-(1-(6,7-dimethoxy-2-((1-(3,4,5-trimethoxyphenyl)-1H-imidazol-4-yl)amino)quinazolin-4-yl)pyrrolidin-2-yl)methanol], the IC50 is under 100 nM.

For `COc1cc(-n2cnc(Nc3nc(N4CCC[C@H]4C(N)=O)c4cccnc4n3)c2)cc(OC)c1OC` [Compound 203b, (S)-1-(2-((1-(3,4,5-trimethoxyphenyl)-1H-imidazol-4-yl)amino)pyrido[2,3-d]pyrimidin-4-yl)pyrrolidine-2-carboxamide], the IC50 lay within 100 to 1000 nM.

Values taken from US11661426B2, “Imidazole-containing inhibitors of ALK2 kinase” (BioCryst Pharmaceuticals, Inc., priority 2017, dated 2023).
